Reference: patent US20260131016A1, “NOVEL AURISTATIN ANALOGS AND IMMUNOCONJUGATES THEREOF” (ADCENTRX THERAPEUTICS INC., priority 2021, published 2026)
pIC50: −log10 of the molar value. Square brackets hold non-standard residues; d marks the D form. Peptide text beside a SMILES is read from it. * marks the point of attachment. Dolaproine = CO[C@@H]([C@@H]1CCCN1)[C@@H](C)C(=O)O; Dil = CC[C@H](C)[C@H](NC)[C@@H](CC(=O)O)OC; NMe2Val = CC(C)[C@@H](C(=O)*)N(C)C

Tested on: HCC1954 breast ductal carcinoma
Assay: Cell viability (Cell Titer Glo 2.0) in HCC1954, 120 hours
Assay type: cell-based
Conditions: HCC1954 5-Day Assay; N-methylation of the amide between P4 and P5
Method: HCC1954 breast ductal carcinoma and T47D cells (ATCC, Manassas, VA, USA) were seeded into 384-well white-walled culture plates and allowed to adhere for 2-4 hours. Cells were then treated at least in duplicate by addition of 5-fold serially diluted test articles prepared at 2× final concentration and incubated at 37° C. for 120 hours. Cell viability following treatment was determined by Cell Titer Glo 2.0 Assay (Promega, Madison, WI, USA) and normalized to non-treated controls. Dose-response relationships were analyzed using GraphPad Prism (La Jolla, CA, USA), and IC50 values were derived from non-linear regression analyses using a 4-parameter logistic equation.

| Compound | IC50[N—Me amide]/IC50[NH-amide] |
| --- | --- |
| CC[C@H](C)[C@@H]([C@@H](CC(=O)N1CCC[C@H]1[C@H](OC)[C@@H](C)C(=O)N[C@@H](Cc1ccccc1)C(=O)OC)OC)N(C)C(=O)[C@@H](NC(=O)[C@H](C(C)C)N(C)C)C(C)C [Auristatin PHE, reference compound] (NMe2Val-V[Dil][Dolaproine]F-OMe) | 139 |
| CC[C@H](C)[C@@H]([C@@H](CC(=O)N1CCC[C@H]1[C@H](OC)[C@@H](C)C(=O)N[C@@H](Cc1ccccc1)c1nccs1)OC)N(C)C(=O)[C@@H](NC(=O)[C@H](C(C)C)N(C)C)C(C)C [Dolastatin 10, dolastatin 10, reference compound] | 240 |

Same assay, conditions: Homo sapiens, HCC1954, 120 h, read-out: IC50 (nM), in vitro potency in HCC1954

| Compound | IC50 [nM] |
| --- | --- |
| CC[C@H](C)[C@@H]([C@@H](CC(=O)N1CCC[C@H]1[C@H](OC)[C@@H](C)C(=O)N(C)CCc1cccc(N)c1)OC)N(C)C(=O)[C@@H](NC(=O)[C@@H]1CCCN1C)C(C)C [Compound 8] | < 5 |
| CC[C@H](C)[C@@H]([C@@H](CC(=O)N1CCC[C@H]1[C@H](OC)[C@@H](C)C(=O)N(C)CCc1cccc(N)c1)OC)N(C)C(=O)[C@@H](NC(=O)C(C)(C)N(C)C)C(C)C [Compound 7, (S)-N-((3R,4S,5S)-1-((S)-2-((IR,2R)-3-((3-aminophenethyl)(methyl)amino)-1-methoxy-2-methyl-3-oxopropyl)pyrrolidin-1-yl)-3-methoxy-5-methyl-1-oxoheptan-4-yl)-2-(2-(dimethylamino)-2-methylpropanamido)-N,3-dimethylbutanamide] | < 5 |
| CC[C@H](C)[C@@H]([C@@H](CC(=O)N1CCC[C@H]1[C@H](OC)[C@@H](C)C(=O)N(C)CCc1cccc(N)c1)OC)N(C)C(=O)[C@@H](NC(=O)[C@@H](C)N(C)C)C(C)C [Compound 3, (S)-N-((3R,4S,5S)-1-((S)-2-((IR,2R)-3-((3-aminophenethyl)(methyl)amino)-1-methoxy-2-methyl-3-oxopropyl)pyrrolidin-1-yl)-3-methoxy-5-methyl-1-oxoheptan-4-yl)-2-((R)-2-(dimethylamino)propanamido)-N,3-dimethylbutanamide] | < 5 |
| CC[C@H](C)[C@@H]([C@@H](CC(=O)N1CCC[C@H]1[C@H](OC)[C@@H](C)C(=O)N(C)CCc1ccccc1N)OC)N(C)C(=O)[C@@H](NC(=O)CN(C)C)C(C)C [Compound 18, (S)-N-((3R,4S,5S)-1-((S)-2-((1R,2R)-3-((2-aminophenethyl)(methyl)amino)-1-methoxy-2-methyl-3-oxopropyl)pyrrolidin-1-yl)-3-methoxy-5-methyl-1-oxoheptan-4-yl)-2-(2-(dimethylamino)acetamido)-N,3-dimethylbutanamide] | 5 to 10 |
| CC[C@H](C)[C@@H]([C@@H](CC(=O)N1CCC[C@H]1[C@H](OC)[C@@H](C)C(=O)N(C)CCc1cccc(N)c1)OC)N(C)C(=O)[C@@H](NC(=O)C(C)(C)CN(C)C)C(C)C [Compound 5, (S)-N-((3R,4S,5S)-1-((S)-2-((1R,2R)-3-((3-aminophenethyl)(methyl)amino)-1-methoxy-2-methyl-3-oxopropyl)pyrrolidin-1-yl)-3-methoxy-5-methyl-1-oxoheptan-4-yl)-2-(3-(dimethylamino)-2,2-dimethylpropanamido)-N,3-dimethylbutanamide] | 5 to 10 |
| CC[C@H](C)[C@@H]([C@@H](CC(=O)N1CCC[C@H]1[C@H](OC)[C@@H](C)C(=O)N(C)CCc1cccc(N)c1)OC)N(C)C(=O)[C@@H](NC(=O)[C@@H]1CCCCN1C)C(C)C [Compound 13, (S)-N-((S)-1-(((3R,4S,5S)-1-((S)-2-((IR,2R)-3-((3-aminophenethyl)(methyl)amino)-1-methoxy-2-methyl-3-oxopropyl)pyrrolidin-1-yl)-3-methoxy-5-methyl-1-oxoheptan-4-yl)(methyl)amino)-3-methyl-1-oxobutan-2-yl)-1-methylpiperidine-2-carboxamide] | < 5 |
| CC[C@H](C)[C@@H]([C@@H](CC(=O)N1CCC[C@H]1[C@H](OC)[C@@H](C)C(=O)N(C)CCc1ccccc1N)OC)N(C)C(=O)[C@@H](NC(=O)[C@@H](C)N(C)C)C(C)C [Compound 17, (S)-N-((3R,4S,5S)-1-((S)-2-((1R,2R)-3-((2-aminophenethyl)(methyl)amino)-1-methoxy-2-methyl-3-oxopropyl)pyrrolidin-1-yl)-3-methoxy-5-methyl-1-oxoheptan-4-yl)-2-((R)-2-(dimethylamino)propanamido)-N,3-dimethylbutanamide] | < 5 |
| CC[C@H](C)[C@@H]([C@@H](CC(=O)N1CCC[C@H]1[C@H](OC)[C@@H](C)C(=O)N(C)CCc1cccc(N)c1)OC)N(C)C(=O)[C@@H](NC(=O)[C@H]1CCCN1C)C(C)C [Compound 9, (R)-N-((S)-1-(((3R,4S,5S)-1-((S)-2-((1R,2R)-3-((3-aminophenethyl)(methyl)amino)-1-methoxy-2-methyl-3-oxopropyl)pyrrolidin-1-yl)-3-methoxy-5-methyl-1-oxoheptan-4-yl)(methyl)amino)-3-methyl-1-oxobutan-2-yl)-1-methylpyrrolidine-2-carboxamide] | < 5 |
| CC[C@H](C)[C@@H]([C@@H](CC(=O)N1CCC[C@H]1[C@H](OC)[C@@H](C)C(=O)N(C)CCc1cccc(N)c1)OC)N(C)C(=O)[C@@H](NC(=O)CN(C)C)C(C)C [Compound 4, (S)-N-((3R,4S,5S)-1-((S)-2-((1R,2R)-3-((3-aminophenethyl)(methyl)amino)-1-methoxy-2-methyl-3-oxopropyl)pyrrolidin-1-yl)-3-methoxy-5-methyl-1-oxoheptan-4-yl)-2-(2-(dimethylamino)acetamido)-N,3-dimethylbutanamide] | < 5 |
| CC[C@H](C)[C@@H]([C@@H](CC(=O)N1CCC[C@H]1[C@H](OC)[C@@H](C)C(=O)N(C)CCc1cccc(N)c1)OC)N(C)C(=O)[C@@H](NC(=O)[C@@H]1CCCN(C)C1)C(C)C [Compound 6, (R)-N-((S)-1-(((3R,4S,5S)-1-((S)-2-((IR,2R)-3-((3-aminophenethyl)(methyl)amino)-1-methoxy-2-methyl-3-oxopropyl)pyrrolidin-1-yl)-3-methoxy-5-methyl-1-oxoheptan-4-yl)(methyl)amino)-3-methyl-1-oxobutan-2-yl)-1-methylpiperidine-3-carboxamide] | > 10 |
| CC[C@H](C)[C@@H]([C@@H](CC(=O)N1CCC[C@H]1[C@H](OC)[C@@H](C)C(=O)N(C)CCc1cccc(N)c1)OC)N(C)C(=O)[C@@H](NC(=O)[C@@H]1CCN(C)C1)C(C)C [Compound 10, (R)-N-((S)-1-(((3R,4S,5S)-1-((S)-2-((IR,2R)-3-((3-aminophenethyl)(methyl)amino)-1-methoxy-2-methyl-3-oxopropyl)pyrrolidin-1-yl)-3-methoxy-5-methyl-1-oxoheptan-4-yl)(methyl)amino)-3-methyl-1-oxobutan-2-yl)-1-methylpyrrolidine-3-carboxamide] | > 10 |

Same assay, conditions: Trastuzumab conjugate of the numbered linker-payload, HCC1954; read-out: ADC (Trastuzumab) IC50 in HCC1954 assay

| Compound | pIC50 |
| --- | --- |
| CC[C@H](C)[C@@H]([C@@H](CC(=O)N1CCC[C@H]1[C@H](OC)[C@@H](C)C(=O)N(C)CCc1cccc(NC(=O)[C@H](C)NC(=O)[C@H](C)NC(=O)CN2C(=O)C=CC2=O)c1)OC)N(C)C(=O)[C@@H](NC(=O)C1(N(C)C)CCC1)C(C)C [Compound 33, 1-(dimethylamino)-N-((S)-1-(((3R,4S,5S)-1-((S)-2-((1R,2R)-3-((3-((S)-2-((S)-2-(2-(2,5-dioxo-2,5-dihydro-1H-pyrrol-1-yl)acetamido)propanamido)propanamido)phenethyl)(methyl)amino)-1-methoxy-2-methyl-3-oxopropyl)pyrrolidin-1-yl)-3-methoxy-5-methyl-1-oxoheptan-4-yl)(methyl)amino)-3-methyl-1-oxobutan-2-yl)cyclobutanecarboxamide 2,2,2-trifluoroacetate] | < 8.00 |
| CC[C@H](C)[C@@H]([C@@H](CC(=O)N1CCC[C@H]1[C@H](OC)[C@@H](C)C(=O)N(C)CCc1cccc(NC(=O)[C@H](C)NC(=O)[C@H](C)NC(=O)CN2C(=O)C=CC2=O)c1)OC)N(C)C(=O)[C@@H](NC(=O)[C@@H](C)N(C)C)C(C)C [Compound 30, (S)-2-((R)-2-(dimethylamino)propanamido)-N-((3R,4S,5S)-1-((S)-2-((1R,2R)-3-((3-((S)-2-((S)-2-(2-(2,5-dioxo-2,5-dihydro-1H-pyrrol-1-yl)acetamido)propanamido)propanamido)phenethyl)(methyl)amino)-1-methoxy-2-methyl-3-oxopropyl)pyrrolidin-1-yl)-3-methoxy-5-methyl-1-oxoheptan-4-yl)-N,3-dimethylbutanamide 2,2,2-trifluoroacetate] | > 8.30 |
| CC[C@H](C)[C@@H]([C@@H](CC(=O)N1CCC[C@H]1[C@H](OC)[C@@H](C)C(=O)N(C)CCc1cccc(NC(=O)[C@H](C)NC(=O)[C@H](C)NC(=O)CN2C(=O)C=CC2=O)c1)OC)N(C)C(=O)[C@@H](NC(=O)[C@H]1CCCN1C)C(C)C [Compound 37, (R)-N-((S)-1-(((3R,4S,5S)-1-((S)-2-((IR,2R)-3-((3-((S)-2-((S)-2-(2-(2,5-dioxo-2,5-dihydro-1H-pyrrol-1-yl)acetamido)propanamido)propanamido)phenethyl)(methyl)amino)-1-methoxy-2-methyl-3-oxopropyl)pyrrolidin-1-yl)-3-methoxy-5-methyl-1-oxoheptan-4-yl)(methyl)amino)-3-methyl-1-oxobutan-2-yl)-1-methylpyrrolidine-2-carboxamide 2,2,2-trifluoroacetate] | > 8.30 |
